For three molecules, IC50 results are on record in patent publication US20040063699A1, “Gpr14 antagonist” (priority 2000, published 2004).

Molecules are shown by their SMILES. Structures can show the parent of a compound that is named as a salt.

The target of the assay is T1, human GPR14 (Homo sapiens, UniProt Q9UKP6).
T1 construct: expressed in transfected cells
T1 sequence (Q9UKP6 1-389): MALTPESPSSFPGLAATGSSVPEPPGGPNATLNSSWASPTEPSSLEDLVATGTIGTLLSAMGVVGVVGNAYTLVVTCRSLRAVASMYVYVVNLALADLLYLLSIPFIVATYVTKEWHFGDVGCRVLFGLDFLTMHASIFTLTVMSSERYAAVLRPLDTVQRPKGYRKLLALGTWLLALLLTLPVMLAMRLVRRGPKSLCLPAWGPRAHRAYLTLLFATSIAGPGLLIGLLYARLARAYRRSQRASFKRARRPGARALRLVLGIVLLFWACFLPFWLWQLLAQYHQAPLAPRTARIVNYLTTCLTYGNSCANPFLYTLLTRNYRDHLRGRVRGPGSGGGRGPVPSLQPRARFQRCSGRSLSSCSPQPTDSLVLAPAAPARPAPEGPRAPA
Put plainly: Inhibition of binding of [125I]-labeled human urotensin II to human GPR14-expressing CHO cell membrane fraction. The note with it: 25° C., 3 hours, read-out: Inhibitory concentration (concentration at which the compound showed 50% inhibition of human GPR14 binding activity). Here is the method: To 1×10^8 CHO/GPR14 cells were added 10 ml of homogenate buffer (10 mM NaHCO3, 5 mM EDTA, 0.5 mM PMSF, 1 μg/ml pepstatin, 4 μg/ml E64, 20 μg/ml leupeptin), and disrupted using Polytron (12,000 rpm, 1 minute). Cell debris solution was centrifuged at 1,000 g for 15 minutes to obtain a supernatant. The supernatant was then […] (in Beckman type 30 rotor, 30,000 rpm, 1 hour), and the resultant precipitant was collected as human GPR14-expressing CHO cell fraction.
Isotope-labeled human urotensin II to be used in experiments for testing inhibition of binding was prepared as described below. 5 μg of human urotensin II (available from Peptide Institute, Inc.) was dissolved in 25 μl of 0.4M sodium acetate (pH 5.6). To the solution was added 200 ng of lactoperoxidase (Wako Pure Chemical Industries, Ltd.) followed by 1 mCi [^125I]-sodium iodide (Amersham Pharmacia Biotech) and 200 ng of hydrogen peroxide (10 μl). The solution was left to stand at room temperature for 10 minutes, another 200 ng of hydrogen peroxide (10 μl) was added thereto and then the solution was left to stand for 10 minutes. The mixture was then purified by HPLC using TSKgel ODS-80Ts column (4.6 mm×25 cm, Toso Co., Ltd.) to obtain [^125I]-labeled human urotensin II.
Experiment for Testing the Ability of Test compound to Inhibit Binding of Urotensin II to GPR14 Using Human GPR14-Expressing Cell Fraction and Isotope-Labeled Urotensin II
Human GPR14-expressing CHO cell fraction was diluted in a membrane diluting buffer (20 mM phosphate buffer (pH7.3), 150 mM NaCl, 5 mM MgCl2, […], 0.05% CHAPS, 0.5 mM PMSF, 0.1 μg/ml Pepstatin, 20 μg/ml Leupeptin, 4 μg/ml E-64) to prepare a solution of cell membrane fraction (protein concentration: 3 μg/ml) for assay. […] Next, the filter was washed three times with membrane diluting buffer (0.2 ml), added with 20 μl of Microscinti 20 (Packard), and determined for radioactivity in Topcount (Packard). Specific-binding is calculated by subtracting non-specific binding from the total binding. […]
Take `O=C(NCCN1CCN(C(c2ccc(F)cc2)c2ccc(F)cc2)CC1)c1ccc2c(c1)CCNCC2` [Example 84, N-(2-{4-[bis(4-fluorophenyl)methyl]piperazin-1-yl}ethyl)-2,3,4,5-tetrahydro-1H-3-benzazepine-7-carboxamide trihydrochloride]: the IC50 was found to be 1.7 nM.

For `O=S(=O)(NCCN1CCN(Cc2ccccc2)CC1)c1ccc2c(c1)CCNCC2` [Example 75, N-[2-(4-benzyl-1-piperazinyl)ethyl]-2,3,4,5-tetrahydro-1H-3-benzazepine-7-sulfonamide trihydrochloride], the IC50 came to 8.6 nM.

`O=C(CCCN1CCN(C(c2ccc(F)cc2)c2ccc(F)cc2)CC1)c1ccc2c(c1)CCNCC2` [Example 6, 4-{4-[bis(4-fluorophenyl)methyl]-1-piperazinyl}-1-(2,3,4,5-tetrahydro-1H-3-benzazepin-7-yl)-1-butanone trihydrochloride]: the IC50 was determined as 3.2 nM.
